Experimental data: US12173001B1, “Pyrido[3,4-e][1,2,4]triazolo[4,3-c]pyrimidines as CK2 inhibitors” (King Faisal University, priority 2024, dated 2024)

Tests used:
[1] = system: PC3 (prostate); assay: In vitro cytotoxic activity (MTT) assay, PC3; type: cell-based; conditions: Homo sapiens, Prostate cell, cells exposed for 96 hours, read-out: Cytotoxicity activity IC50 (50% inhibition of cell proliferation)
Procedure: (§1) Compounds 1-16 were screened for their in vitro cytotoxic activity utilizing a 3-(4,5-dimethyl-thiazol-2-yl)-2,5-diphenyltetrazolium bromide (MTT) assay against selected cancer human cell lines consisting of PC3 (prostate), HCT116 (colon), A375 (melanoma), H1299 (lung), MIAPaCa-2 (pancreas), HL60 (leukemia), MCF7 (breast), MDA-MB-231 (breast) (T. Mosmann, J. Immunol. Meth., 1983, 65, 55-63). The cells were cultured at 37° C. in RMPI1640 medium supplemented with 10% fetal bovine serum, 50 IU/mL penicillin, and […] streptomycin in a 5% CO2 incubator. All cells were sub-cultured 3 times/week by trypsinization. Viable cells were seeded and allowed to adhere for 12 hours before a test drug was added in 96-well plates at an initial density of 1.0×10^5 cells/mL. Tumor cell lines were separately exposed to various concentrations of the tested compounds followed by incubation at a temperature of 37° C. during 96 hours inside a medium of fresh RMPI 1640. Cells were subsequently incubated at 37° C. using MTT at 0.5 mg/mL during 4 hours. After removal of supernatant, formazan crystals were dissolved in isopropanol and the optical density was measured at 570 nm. CX-4945 was used as a positive control.

[2] = system: HCT116 (colon); assay: In vitro cytotoxic activity (MTT) assay, HCT116; type: cell-based; conditions: Homo sapiens, HCT-116, cells exposed for 96 hours, read-out: Cytotoxicity activity IC50 (50% inhibition of cell proliferation)
Procedure: as §1

[3] = system: A375 (melanoma); assay: In vitro cytotoxic activity (MTT) assay, A375; type: cell-based; conditions: Homo sapiens, A-375, cells exposed for 96 hours, read-out: Cytotoxicity activity IC50 (50% inhibition of cell proliferation)
Procedure: as §1

[4] = system: H1299 (lung); assay: In vitro cytotoxic activity (MTT) assay, H1299; type: cell-based; conditions: Homo sapiens, NCI-H1299, cells exposed for 96 hours, read-out: Cytotoxicity activity IC50 (50% inhibition of cell proliferation)
Procedure: as §1

[5] = system: MIAPaCa-2 (pancreas); assay: In vitro cytotoxic activity (MTT) assay, MIAPaCa-2; type: cell-based; conditions: Homo sapiens, MIA PaCa-2, cells exposed for 96 hours, read-out: Cytotoxicity activity IC50 (50% inhibition of cell proliferation)
Procedure: as §1

[6] = system: HL60 (leukemia); assay: In vitro cytotoxic activity (MTT) assay, HL60; type: cell-based; conditions: Homo sapiens, HL-60, cells exposed for 96 hours, read-out: Cytotoxicity activity IC50 (50% inhibition of cell proliferation)
Procedure: as §1

[7] = system: MCF7 (breast); assay: In vitro cytotoxic activity (MTT) assay, MCF7; type: cell-based; conditions: Homo sapiens, cells exposed for 96 hours, read-out: Cytotoxicity activity IC50 (50% inhibition of cell proliferation)
Procedure: as §1

[8] = system: MDA-MB-231 (breast); assay: In vitro cytotoxic activity (MTT) assay, MDA-MB-231; type: cell-based; conditions: Homo sapiens, cells exposed for 96 hours, read-out: Cytotoxicity activity IC50 (50% inhibition of cell proliferation)
Procedure: as §1

[9] = molecular target: T1, recombinant human CK2 (Homo sapiens, UniProt P68400); assay: CK2 Kinase Assay (33P-ATP, filter plate); type: biochemical; conditions: final ATP concentration 15 μM, 10 min at 30° C.; read-out: protein kinase CK2 activity IC50
T1 construct: purchased Millipore
T1 sequence (P68400 whole entry): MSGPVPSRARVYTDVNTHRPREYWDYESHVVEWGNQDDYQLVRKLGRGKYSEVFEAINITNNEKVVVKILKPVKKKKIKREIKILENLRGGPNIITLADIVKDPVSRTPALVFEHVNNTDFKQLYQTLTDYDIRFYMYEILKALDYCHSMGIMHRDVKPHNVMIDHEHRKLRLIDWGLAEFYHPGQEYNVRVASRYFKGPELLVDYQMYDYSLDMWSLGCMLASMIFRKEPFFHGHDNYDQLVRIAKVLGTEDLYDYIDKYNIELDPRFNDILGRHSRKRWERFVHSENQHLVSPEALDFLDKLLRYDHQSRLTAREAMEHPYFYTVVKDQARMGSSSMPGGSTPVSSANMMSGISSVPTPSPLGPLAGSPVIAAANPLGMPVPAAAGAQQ
T1 sequence (P67870 whole entry partner): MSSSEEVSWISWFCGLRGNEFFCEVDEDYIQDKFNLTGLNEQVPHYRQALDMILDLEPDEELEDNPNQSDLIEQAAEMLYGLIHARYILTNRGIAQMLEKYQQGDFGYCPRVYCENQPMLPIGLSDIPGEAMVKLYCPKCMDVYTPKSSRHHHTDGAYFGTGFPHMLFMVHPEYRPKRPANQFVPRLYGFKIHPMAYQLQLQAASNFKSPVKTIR
Procedure: CK2 Kinase Assay was conducted using the protocol as described in Pierre F. et al; J. Med. Chem. 2011, 54, 635-654. The tested compounds in aqueous solution were added at a volume of 10 μL to a reaction mixture comprising 10 μL of assay dilution buffer (ADB; 20 mM MOPS, pH 7.2, 25 mM β-glycerol phosphate, 5 mM EGTA, 1 mM sodium orthovanadate, and 1 mM dithiothreitol), 10 μL of substrate peptide (RRRDDDSDDD (SEQ 1), dissolved in ADB at a concentration of 1 mM), 10 μL of recombinant human CK2 (RROP-holoenzyme, 25 ng dissolved in ADB; Millipore). Reactions were initiated by the addition of 10 μL of ATP solution (90% 75 mMMgCl2, 75 μM ATP (final ATP concentration: 15 μM) dissolved in ADB; 10% [γ-33P] ATP (stock 1mCi/100 μL; 3000 Ci/mmol (Perkin-Elmer) and maintained for 10 min at 30° C. The reactions were quenched with 100 μL of 0.75% phosphoric acid and then transferred to and filtered through a phosphor cellulose filter plate (Millipore). After washing each well five times with 0.75% phosphoric acid, the plate was dried under vacuum for 5 min and, following the addition of 15 μL of scintillation fluid to each well, the residual radioactivity was measured using a Wallac luminescence counter. The IC50 values were derived from eight concentrations of test inhibitors.

IC50 [9]: 0.032 µM
Structure (SMILES): O=C(O)c1nnc2c3cnccc3nc(Nc3cccc(Cl)c3)n12 [Compound 1, 5-((3-chlorophenyl)amino)pyrido[3,4-e][1,2,4]triazolo[4,3-c]pyrimidine-3-carboxylic acid]
IC50 [1]: 1.5 µM | IC50 [2]: 2.8 µM | IC50 [3]: 5.4 µM | IC50 [4]: 3.1 µM | IC50 [5]: 1.3 µM | IC50 [6]: 5.8 µM | IC50 [7]: 4.9 µM | IC50 [8]: 4.5 µM
